Experimental data: US20250230193A1, “CYCLIC COMPOUND HAVING SELECTIVE KRAS INHIBITORY EFFECT ON HRAS AND NRAS” (CHUGAI SEIYAKU KABUSHIKI KAISHA, priority 2022, published 2025)

Key:
[1] = target: GDP-bound HRAS wild-type protein (Homo sapiens, UniProt P01112); experiment: Binding to HRAS by surface plasmon resonance (SPR), Single Cycle Kinetics; details: KD ratio, GDP-bound HRAS wild-type vs GDP-bound KRAS wild-type, SPR
[2] = target: GDP-bound NRAS wild-type protein (Homo sapiens, UniProt P01111); experiment: Binding to NRAS by surface plasmon resonance (SPR), Single Cycle Kinetics; details: KD ratio, GDP-bound NRAS wild-type vs GDP-bound KRAS wild-type, SPR
GDP-bound NRAS wild-type protein, sequence (P01111 whole entry): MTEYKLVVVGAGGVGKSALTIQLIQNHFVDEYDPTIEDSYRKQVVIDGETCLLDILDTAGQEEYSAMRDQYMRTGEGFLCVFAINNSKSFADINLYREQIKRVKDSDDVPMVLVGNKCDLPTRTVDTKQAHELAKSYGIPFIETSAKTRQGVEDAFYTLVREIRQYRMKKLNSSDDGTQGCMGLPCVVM

GDP-bound HRAS wild-type protein, sequence (P01112 whole entry): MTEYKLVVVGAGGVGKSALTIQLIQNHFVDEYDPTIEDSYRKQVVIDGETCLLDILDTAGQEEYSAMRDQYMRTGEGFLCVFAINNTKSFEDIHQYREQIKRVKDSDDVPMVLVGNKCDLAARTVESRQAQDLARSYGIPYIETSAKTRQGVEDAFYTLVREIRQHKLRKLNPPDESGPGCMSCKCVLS

SMILES	HRAS/KRAS (ratio of KD value with respect to HRAS to KD value with respect to KRAS) [1]	NRAS/KRAS (ratio of KD value with respect to NRAS to KD value with respect to KRAS) [2]
CCO[C@@H]1C[C@H]2C(=O)NC3(CCC3)C(=O)N(C)[C@@H](C3CCCC3)C(=O)N(C)[C@H](C(=O)N3CCOCC3)CC(=O)N(C)[C@@H](Cc3cccc(F)c3)C(=O)N[C@@H]([C@@H](C)CC)C(=O)N(C)CC(=O)N(C)[C@H]3CCCCCN(C3=O)[C@@H](Cc3ccc(C(F)(F)F)cc3)C(=O)N(C)CC(=O)N[C@@H](CCc3cc(F)c(C(F)(F)F)c(F)c3)C(=O)N2C1 [PP0856]	B (a compound having 3 or more and less than 10 is denoted as B)	B (a compound having 3 or more and less than 10 is denoted as B)
CCO[C@@H]1C[C@H]2C(=O)NC3(CCC3)C(=O)N(C)[C@@H](C3CCCC3)C(=O)N(C)[C@H](C(=O)N3CCOCC3)CC(=O)N(C)[C@@H](Cc3cccc(Cl)c3)C(=O)N[C@@H]([C@@H](C)CC)C(=O)N(C)CC(=O)N(C)[C@H]3CCCCCN(C3=O)[C@@H](Cc3ccc(C(F)(F)F)cc3)C(=O)N(C)CC(=O)N[C@@H](CCc3cc(F)c(C(F)(F)F)c(F)c3)C(=O)N2C1 [PP0857]	B (a compound having 3 or more and less than 10 is denoted as B)	B (a compound having 3 or more and less than 10 is denoted as B)
CCO[C@@H]1C[C@H]2C(=O)NC3(CCC3)C(=O)N(C)[C@@H](C3CCCC3)C(=O)N(C)[C@H](C(=O)N3CCOCC3)CC(=O)N(C)[C@@H](COC)C(=O)N[C@@H]([C@@H](C)CC)C(=O)NCC(=O)N(C)[C@H]3CCCCCN(C3=O)[C@@H](Cc3ccc(C(F)(F)F)cc3)C(=O)N(C)CC(=O)N[C@@H](CCc3cc(F)c(C(F)(F)F)c(F)c3)C(=O)N2C1 [PP0858]	B (a compound having 3 or more and less than 10 is denoted as B)	B (a compound having 3 or more and less than 10 is denoted as B)
CCO[C@@H]1C[C@H]2C(=O)NC3(CCC3)C(=O)N(C)[C@@H](C3CCCC3)C(=O)N(C)[C@H](C(=O)N(C)C)CC(=O)N(C)[C@@H](COC)C(=O)N[C@@H]([C@@H](C)CC)C(=O)NCC(=O)N(C)[C@H]3CCCCCN(C3=O)[C@@H](Cc3ccc(C(F)(F)F)cc3)C(=O)N(C)CC(=O)N[C@@H](CCc3cc(F)c(C(F)(F)F)c(F)c3)C(=O)N2C1 [PP0859]	B (a compound having 3 or more and less than 10 is denoted as B)	B (a compound having 3 or more and less than 10 is denoted as B)
CC[C@H](C)[C@@H]1NC(=O)[C@H](COC)N(C)C(=O)C[C@@H](C(=O)N2CCOCC2)N(C)C(=O)[C@H](C2CCCC2)N(C)C(=O)C2(CCC2)NC(=O)[C@@H]2CCCN2C(=O)[C@H](CCc2cc(F)c(C(F)(F)F)c(F)c2)NC(=O)CN(C)C(=O)[C@H](Cc2ccc(C(F)(F)F)cc2)N2CCCCC[C@@H](C2=O)N(C)C(=O)CNC1=O [PP0860]	B (a compound having 3 or more and less than 10 is denoted as B)	B (a compound having 3 or more and less than 10 is denoted as B)
CC[C@H](C)[C@@H]1NC(=O)[C@H](COC)N(C)C(=O)C[C@@H](C(=O)N2CCOCC2)N(C)C(=O)[C@H](C2CCCC2)N(C)C(=O)C2(CCC2)NC(=O)[C@@H]2CC(F)(F)CN2C(=O)[C@H](CCc2cc(F)c(C(F)(F)F)c(F)c2)NC(=O)CN(C)C(=O)[C@H](Cc2ccc(C(F)(F)F)cc2)N2CCCCC[C@@H](C2=O)N(C)C(=O)CNC1=O [PP0861]	B (a compound having 3 or more and less than 10 is denoted as B)	B (a compound having 3 or more and less than 10 is denoted as B)
CCO[C@@H]1C[C@H]2C(=O)NC3(CCCC3)C(=O)N(C)[C@@H](C3CCCC3)C(=O)N(C)[C@H](C(=O)N3CCOCC3)CC(=O)N(C)[C@@H](COC)C(=O)N[C@@H]([C@@H](C)CC)C(=O)NCC(=O)N(C)[C@H]3CCCCCN(C3=O)[C@@H](Cc3ccc(C(F)(F)F)cc3)C(=O)N(C)CC(=O)N[C@@H](CCc3cc(F)c(C(F)(F)F)c(F)c3)C(=O)N2C1 [PP0862]	B (a compound having 3 or more and less than 10 is denoted as B)	B (a compound having 3 or more and less than 10 is denoted as B)
CCO[C@@H]1C[C@H]2C(=O)NC3(CCC3)C(=O)N(C)[C@@H](C3CCCC3)C(=O)N(C)[C@H](C(=O)N3CCOCC3)CC(=O)N(C)[C@@H](COC)C(=O)N[C@@H]([C@@H](C)CC)C(=O)N3CC[C@H]3C(=O)N(C)[C@H]3CCCCCN(C3=O)[C@@H](Cc3ccc(C(F)(F)F)cc3)C(=O)N(C)CC(=O)N[C@@H](CCc3cc(F)c(C(F)(F)F)c(F)c3)C(=O)N2C1 [PP0863]	B (a compound having 3 or more and less than 10 is denoted as B)	B (a compound having 3 or more and less than 10 is denoted as B)
CCO[C@@H]1C[C@H]2C(=O)NC3(CCC3)C(=O)N(C)[C@@H](C3CCCC3)C(=O)N(C)[C@H](C(=O)N(C)C)CC(=O)N(C)[C@@H](COC)C(=O)N[C@@H]([C@@H](C)CC)C(=O)N3CC[C@H]3C(=O)N(C)[C@H]3CCCCCN(C3=O)[C@@H](Cc3ccc(C(F)(F)F)cc3)C(=O)N(C)CC(=O)N[C@@H](CCc3cc(F)c(C(F)(F)F)c(F)c3)C(=O)N2C1 [PP0864]	B (a compound having 3 or more and less than 10 is denoted as B)	B (a compound having 3 or more and less than 10 is denoted as B)
CC[C@H](C)[C@@H]1NC(=O)[C@H](COC)N(C)C(=O)C[C@@H](C(=O)N2CCOCC2)N(C)C(=O)[C@H](C2CCCC2)N(C)C(=O)C2(CCC2)NC(=O)[C@@H]2CCCN2C(=O)[C@H](CCc2cc(F)c(C(F)(F)F)c(F)c2)NC(=O)CN(C)C(=O)[C@H](Cc2ccc(C(F)(F)F)cc2)N2CCCCC[C@@H](C2=O)N(C)C(=O)[C@@H]2CCN2C1=O [PP0865]	B (a compound having 3 or more and less than 10 is denoted as B)	B (a compound having 3 or more and less than 10 is denoted as B)
CC[C@H](C)[C@@H]1NC(=O)[C@H](COC)N(C)C(=O)C[C@@H](C(=O)N2CCOCC2)N(C)C(=O)[C@H](C2CCCC2)N(C)C(=O)C2(CCC2)NC(=O)[C@@H]2CC(F)(F)CN2C(=O)[C@H](CCc2cc(F)c(C(F)(F)F)c(F)c2)NC(=O)CN(C)C(=O)[C@H](Cc2ccc(C(F)(F)F)cc2)N2CCCCC[C@@H](C2=O)N(C)C(=O)[C@@H]2CCN2C1=O [PP0866]	B (a compound having 3 or more and less than 10 is denoted as B)	B (a compound having 3 or more and less than 10 is denoted as B)
CCO[C@@H]1C[C@H]2C(=O)NC3(CCCC3)C(=O)N(C)[C@@H](C3CCCC3)C(=O)N(C)[C@H](C(=O)N3CCOCC3)CC(=O)N(C)[C@@H](COC)C(=O)N[C@@H]([C@@H](C)CC)C(=O)N3CC[C@H]3C(=O)N(C)[C@H]3CCCCCN(C3=O)[C@@H](Cc3ccc(C(F)(F)F)cc3)C(=O)N(C)CC(=O)N[C@@H](CCc3cc(F)c(C(F)(F)F)c(F)c3)C(=O)N2C1 [PP0867]	B (a compound having 3 or more and less than 10 is denoted as B)	B (a compound having 3 or more and less than 10 is denoted as B)
CC[C@H](C)[C@@H]1NC(=O)[C@H](CC(C)C)N(C)C(=O)C[C@@H](C(=O)N2CCOCC2)N(C)C(=O)[C@H](C2CCCC2)N(C)C(=O)C2(CCC2)NC(=O)[C@@H]2C[C@@H](O)CN2C(=O)[C@H](CCc2cc(F)c(C(F)(F)F)c(F)c2)NC(=O)CN(C)C(=O)[C@H](Cc2ccc(C(F)(F)F)cc2)N2CCCC[C@@H](C2=O)N(C)C(=O)CN(C)C1=O [PP0868]	B (a compound having 3 or more and less than 10 is denoted as B)	C (A compound having a KD ratio of 0.1 or more and less than 3 is denoted as C)
CC[C@H](C)[C@@H]1NC(=O)[C@H](CC(C)C)N(C)C(=O)C[C@@H](C(=O)N2CCOCC2)N(C)C(=O)[C@H](C2CCCC2)N(C)C(=O)C2(CCC2)NC(=O)[C@@H]2[C@@H](O)CCN2C(=O)[C@H](CCc2cc(F)c(C(F)(F)F)c(F)c2)NC(=O)CN(C)C(=O)[C@H](Cc2ccc(C(F)(F)F)cc2)N2CCCC[C@@H](C2=O)N(C)C(=O)CN(C)C1=O [PP0869]	B (a compound having 3 or more and less than 10 is denoted as B)	B (a compound having 3 or more and less than 10 is denoted as B)
CC[C@H](C)[C@@H]1NC(=O)[C@H](CC(C)C)N(C)C(=O)C[C@@H](C(=O)N2CCOCC2)N(C)C(=O)[C@H](C2CCCC2)N(C)C(=O)C2(CCC2)NC(=O)[C@@H]2[C@H](O)CCN2C(=O)[C@H](CCc2cc(F)c(C(F)(F)F)c(F)c2)NC(=O)CN(C)C(=O)[C@H](Cc2ccc(C(F)(F)F)cc2)N2CCCC[C@@H](C2=O)N(C)C(=O)CN(C)C1=O [PP0870]	B (a compound having 3 or more and less than 10 is denoted as B)	B (a compound having 3 or more and less than 10 is denoted as B)
CC[C@H](C)[C@@H]1NC(=O)[C@H](CC(C)C)N(C)C(=O)C[C@@H](C(=O)N2CCOCC2)N(C)C(=O)[C@H](C2CCCC2)N(C)C(=O)C2(CCC2)NC(=O)[C@@H]2C[C@@H](O)CN2C(=O)[C@H](CCc2cc(F)c(C(F)(F)F)c(F)c2)NC(=O)CN(C)C(=O)[C@H](Cc2ccc(C(F)(F)F)cc2)N2CCCCC[C@@H](C2=O)N(C)C(=O)CN(C)C1=O [PP0871]	B (a compound having 3 or more and less than 10 is denoted as B)	B (a compound having 3 or more and less than 10 is denoted as B)
